Measured values published in paper PMC11626952, “Preclinical evaluation of radiolabeled tissue factor-targeted peptide for theranostics of hepatocellular carcinoma post percutaneous ethanol injection” (Theranostics, 2024).
Where a SMILES comes first, the peptide text is derived from it. Side-chain parts run from the residue outwards. The star is where a group is joined. NOTA = O=C(O)CN1CCN(CC(=O)O)CCN(CC(=O)*)CC1; PEG8 = NCCOCCOCCOCCOCCOCCOCCOCCOCCC(=O)O

Columns and labels:
[1] = design: species or system Kunming mice; conditions: mouse, in vivo
Procedure: increased to 95 °C, and maintained for 15 min. The crude product was purified using a C18 Sep-Pak cartridge and sterilized for subsequent applications. Radiolabeling efficiency was assessed using radio-thin-layer chromatography with citrate solvent (0.1 M, pH 4.0) as the mobile phase.
Small animal biodistribution and pharmacokinetics study of Al18F-NOTA-tTF A small animal biodistribution experiment was conducted with female Kunming mice (5 weeks). The mice were divided into six groups with 3-4 mice in each group. Al18F-NOTA-tTF (1.2 MBq) was injected into KM mice via the tail vein and a 1% injected dose of Al18F-NOTA-tTF was prepared for reference. At 5 min,15 min, 30 min, 60 min, 90 min and 120 min post-injection, the KM mice were euthanized and organs of interest were collected, wet-weighed. The uptake in various organs and tissues was determined and expressed in terms of the percentage injected dose per gram (%ID/g, mean ± SD) after quantifying the radioactivity of the samples using an […]
For the pharmacokinetic study, each Kunming mouse was intravenously injected with a 3.7 MBq of Al18F-NOTA-tTF. Small amounts of blood were obtained through the orbital vein of the […]
weighed and measured for radioactivity by the γ-counter. The results are expressed as the percentage injected dose per gram (%ID/g).
(§1) Al18F-NOTA-tTF PET/CT imaging in mice bearing Hepa1-6 xenografts
(§2) Al18F-NOTA-tTF PET/CT imaging of Hepa1-6 tumor-bearing mice were intravenously injected with 100 μL of Al18F-NOTA-tTF (2.96 MBq). In the blocking experiments, unlabeled excess precursors (0.2 mg) were co-injected with Al18F-NOTA-tTF into Hepa1-6 mice (n = 3).
One hour after Al18F-NOTA-tTF injection, the mice were anesthetized and placed in the prone

[2] = type: in vitro ADME, bovine
Source text: (§3) instant thin layer chromatography. The stability of Al18F-NOTA-tTF in PBS (C) and FBS (D) via
(§4) instant thin layer chromatography. The stability of 68Ga-DOTA-tTF in PBS (E) and FBS (F) via
(§5) instant thin layer chromatography.
(§6) FBS: fetal bovine serum; PBS: phosphate-buffered saline.

in vivo = test: in vivo; design: species or system mice; conditions: mouse, iv, 1.2 MBq, total radioactivity, tumor uptake (biodistribution), PEI group
Procedure: (§7) We randomly divided tumor-bearing mice into the HD-PEI treatment (HD-PEI, n = 8), sham treatment (Sham, n = 8), and negative control groups (NC, n = 6). Al^18F-NOTA-tTF PET/CT imaging was conducted on days 1 and 6 post-PEI. Hepa1-6 tumor-bearing mice received an intravenous injection of 100 μL of Al^18F-NOTA-tTF (2.96 MBq). Tumor volume and mouse body weight were monitored every 2 to 3 days. Biodistribution studies were performed on days 1 and 6 post-PEI, with mice divided into PEI and NC groups. Al^18F-NOTA-tTF (1.2 MBq) was administered via tail vein injection, and biodistribution results were expressed as the percentage of injected dose per gram (%ID/g).

tissue factor (TF) [3] = target: T1, tissue factor (TF) (Mus musculus, UniProt P20352); test: in vivo; design: species or system mice; conditions: iv, 1.2 MBq, 1 h
T1 construct: Hepa1-6 tumor-bearing mice received an intravenous injection of 100 μL of Al^18F-NOTA-tTF (2.96 MBq); from tissue; host or cells: subcutaneous Hepa1-6 tumours in male C57BL/6 mice
T1 sequence (P20352 29-294): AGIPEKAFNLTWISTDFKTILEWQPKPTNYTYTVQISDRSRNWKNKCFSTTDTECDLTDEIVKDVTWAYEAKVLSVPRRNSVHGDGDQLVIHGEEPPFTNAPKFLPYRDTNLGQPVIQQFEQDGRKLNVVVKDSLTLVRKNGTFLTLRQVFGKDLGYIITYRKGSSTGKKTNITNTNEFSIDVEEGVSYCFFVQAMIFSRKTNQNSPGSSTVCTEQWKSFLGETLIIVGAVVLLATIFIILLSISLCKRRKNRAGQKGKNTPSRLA
Procedure: as §7

tissue factor (TF) [4] = target: T1, tissue factor (TF); test: Al18F-NOTA-tTF PET/CT imaging in Hepa1-6 tumor-bearing mice; type: in vivo; conditions: for tumor uptake SUVmax, PEI group: n = 8
Procedure: as §7, with “We randomly divided tumor-bearing mice into the HD-PEI treatment (HD-PEI, n = 8), sham treatment (Sham, n = 8), and negative control groups (NC, n = 6).” left out
Tumor-bearing mice were randomly divided into the HD-PEI treatment (HD-PEI, n = 8), LD-PEI treatment (LD-PEI, n = 8), and negative control (NC, n = 8) groups. Al^18F-NOTA-tTF PET/CT imaging was conducted on days 1, 5, and 12 post-PEI.^ 18F-FDG PET/CT imaging was conducted on days 2, 6, and 13 post-PEI. Hepa1-6 tumor-bearing mice received intravenous injections of 100 μL of Al^18F-NOTA-tTF (2.96 MBq) and^ 18F-FDG (2.96 MBq). Tumor volume and mouse body weight were monitored every 2 days. […]
increased to 95 °C, and maintained for 15 min. The crude product was purified using a C18 Sep-Pak cartridge and sterilized for subsequent applications. Radiolabeling efficiency was assessed using radio-thin-layer chromatography with citrate solvent (0.1 M, pH 4.0) as the mobile phase. […]
as §1, §2
One hour after Al18F-NOTA-tTF injection, the mice were anesthetized and placed in the prone […]
position on the scanning bed. The PET/CT imaging was acquired with a PET/CT scanner (uBio-EXPLORER, United Imaging, China). PET images were collected for 10 min and reconstructed to get more high-resolution images using an ordered subsets expectation maximization (OSEM) algorithm (4 OSEM iterations, resolution: 1.4 mmHD) with scatter, attenuation, and decay corrections applied. Regions of interest (ROIs) were drawn on the CT images and further mapped on PET. The SUVmax of the tumor and muscle were calculated and referred to as the tumor-to- […]
PEI treatment and efficacy monitoring
In this study, we established a model of incomplete ablation of hepatocellular carcinoma using percutaneous ethanol injection (PEI). Once the tumor volume reached approximately 100 mm3, all mice were randomly assigned to treatment, sham treatment, and negative control groups.
During the PEI procedure, an insulin needle was inserted along the long diameter of the tumor, with needle depth set at1/2 to 2/3 of the tumor diameter. Ethanol was injected at a rate of 25 μL every half minute, and the needle was slowly withdrawn after 5 minutes of injection. Ethanol leakage from the tumor was assessed using CT scans immediately following PEI treatment, defined as day 0. Subsequently, 18F-FDG PET/CT imaging was performed on day 1 post-PEI to evaluate therapeutic efficacy. Tumor volume and mouse body weight were monitored every 2 to 3 days. Tumor volume was calculated using the formula volume = (length × width^2)/2.
Radioligand therapy study
Mice were randomly assigned to five groups: PEI (group 1, n = 10), PEI + 0.45 mCi 177Lu-DOTA-tTF (group 2, n = 10), PEI + 0.75 mCi 177Lu-DOTA-tTF (group 3, n = 8), 0.45 mCi 177Lu-DOTA-tTF (group 4, n = 10), and saline (group 5, n = 10). During radiotherapy, one mouse died in […]

[5] = type: physicochemical
Source text: as §3, §4, §5, §6

[6] = HD/LD-PEI models, day 1 post-PEI
[7] = HD/LD-PEI models, day 5 post-PEI
[8] = HD/LD-PEI models, day 12 post-PEI
[9] = day 1 post-PEI, 60 min post-injection, n = 6

- tumor uptake SUVmax, NC group (tissue factor (TF) [4]; HD/LD-PEI models, day 1): 0.12 ± 0.04
- tumor uptake SUVmax, HD-PEI group (tissue factor (TF) [4]; [6]): 0.42 ± 0.17
- tumor uptake SUVmax, LD-PEI group (tissue factor (TF) [4]; [6]): 0.54 ± 0.23
- tumor uptake SUVmax, NC group (tissue factor (TF) [4]; HD/LD-PEI models, day 5): 0.16 ± 0.06
- tumor uptake SUVmax, HD-PEI group (tissue factor (TF) [4]; [7]): 0.33 ± 0.09
- tumor uptake SUVmax, LD-PEI group (tissue factor (TF) [4]; [7]): 0.30 ± 0.09
- tumor SUVmax, HD-PEI group (tissue factor (TF) [4]; [8]): 0.25 ± 0.10
- tumor SUVmax, LD-PEI group (tissue factor (TF) [4]; [8]): 0.31 ± 0.08
- tumor uptake SUVmax, blocked (tissue factor (TF) [4]; Hepa1-6 tumor-bearing mice, 0.2 mg unlabeled precursor, 60 min post-injection, n = 3): 0.07 ± 0.010
- tumor uptake SUVmax, non-blocked (tissue factor (TF) [4]; Hepa1-6 tumor-bearing mice, 60 min post-injection, n = 3): 0.13 ± 0.005
- tumor uptake SUVmax, NC group (tissue factor (TF) [4]; [9]): 0.12 ± 0.03
- tumor uptake SUVmax, Sham group (tissue factor (TF) [4]; [9]): 0.15 ± 0.04
- tumor uptake SUVmax, PEI group (tissue factor (TF) [4]; day 1 post-PEI, 60 min post-injection): 0.62 ± 0.14
- tumor uptake SUVmax, NC group (tissue factor (TF) [4]; day 6 post-PEI, n = 6): 0.11 ± 0.03
- tumor uptake SUVmax, Sham group (tissue factor (TF) [4]; day 6 post-PEI, n = 6): 0.11 ± 0.01
- tumor uptake SUVmax, PEI group (tissue factor (TF) [4]; day 6 post-PEI): 0.46 ± 0.23
Structure (SMILES): CC(C)C[C@H](NC(=O)[C@@H](NC(=O)[C@@H](N)CCCNC(=N)N)[C@@H](C)O)C(=O)N[C@@H](C)C(=O)N[C@@H](Cc1ccccc1)C(=O)N[C@H](C(=O)N[C@@H](CCCNC(=N)N)C(=O)N[C@@H](Cc1ccccc1)C(=O)N[C@@H](CCCCNC(=O)CCOCCOCCOCCOCCOCCOCCOCCOCCNC(=O)CN1CCN(CC(=O)O)CCN(CC(=O)O)CC1)C(=O)O)C(C)C [Al^18F-NOTA-tTF] (H-RTLAFVRFK([PEG8-NOTA])-OH)
- renal clearance [1]: rapid renal clearance
- distribution phase half-life (Half-life Fast) ([1]; iv): 1.192 min
- elimination phase half-life (Half-life Slow) ([1]; iv): 12.29 min
- Vitro stability in FBS [2]: > 95% (3 h)
- in vitro stability in saline or fetal bovine serum [2]: remained stable
- tissue uptake at 1 h (in vivo): 0.77 ± 0.25 %ID/g
- tumor uptake (biodistribution), PEI group (tissue factor (TF) [3]): 0.50 ± 0.28 %ID/g
- Vitro stability in PBS [5]: > 95% (3 h)
